Assay results reported in US11111238B2, “Coumarin derivatives, processes for their preparation and uses thereof for the treatment of cancer” (Lead Discovery Center GmbH, priority 2017, dated 2021).
pIC50: −log10 of the molar value.

molecular target: mitochondrial RNA-polymerase (POLRMT) (Mus musculus, UniProt Q8BKF1); assay: Homogeneous TR-FRET assay for mitochondrial transcription activity; type: biochemical; conditions: homogeneous TR-FRET assay according to Example 4; activity class
Description: The TR-FRET assay was basically conducted as described in WO2016/193,231A1, especially as described in example 1 (hereby incorporated by reference). With respect to the background of the mitochondrial transcription it is referred to Falkenberg et al. (2002) and Posse et al. (Posse et al., 2015). The method monitors the activity of mitochondrial RNA-polymerase via detection of the formation of its product, a 407 bp long RNA sequence. Detection of the product is facilitated by hybridization of two DNA-oligonucleotide probes to specific and adjacent sequences within the RNA product sequence. Upon annealing of the probes, two fluorophores that are coupled directly to an acceptor nucleotide probe (ATT0647, 5′) or introduced via a coupled streptavidin interacting with a biotinylated donor nucleotide probe on the other side (Europium cryptate, 3′) are brought into sufficient proximity to serve as a fluorescence-donor-acceptor pair as generally described in Walters and Namchuk (2003). Thus, a FRET signal at 665 nm is generated upon excitation at 340 nm.
Briefly, the protocol described here was applied for screening and activity determination in a low-volume 384-well microtiter plate with non-binding surface. For high-throughput application in the 1536-well microtiter plate format, volumes of the reagent mixes were adjusted, maintaining the volumetric ratio. Proteins POLRMT (NM_172551.3), TFAM (NM_009360.4) and TFB2 M (NM_008249.4) were diluted from their stocks to working concentrations of 150 nM, 1.8 μM and 330 nM respectively, in a dilution buffer containing 100 mM Tris-HCl pH 8.0, 200 mM NaCl, 10% (v/v) glycerole, 2 mM glutathione (GSH), 0.5 mM EDTA and 0.1 mg/mL BSA. Protein dilutions and template DNA, comprising a pUC18 plasmid encoding the mitochondrial light strand promoter, restriction linearized proximal to the promoter 3′-end (pUC-LSP), were mixed at the twofold final assay-concentration in a reaction buffer, containing 10 mM Tris-HCl pH 7.5, 10 mM MgCl2, 40 mM NaCl, 2 mM GSH, 0.01% (w/v) Tween-20 and 0.1 mg/mL BSA.
5 μL of this mix were dispensed, depending on the chosen microtiter plate format, using multi-channel pipettes or a Multidrop® dispenser (Thermo Fisher Scientific, Waltham Mass.) into the wells of a microtiter plate and incubated at room temperature (RT) for 10 min. Chemical compounds under scrutiny in the assay were applied using contact-free acoustic droplet-dispensing (Echo520® Labcyte Inc., Sunnyvale Calif.) from 10 mM compound stocks in 100% DMSO, to a final concentration of 10 μM or in serial dilution series of the required concentration range. Equal amounts of DMSO without any compound were added to positive control samples, followed by an incubation step at RT for 10 min.
The enzymatic reaction was started by the addition of 5 μL of a mix of […] in reaction buffer to a final concentration of 500 μM each. No nucleotide mix was added to negative control samples. The content of the wells was mixed using a VarioTeleshaker™ (Thermo Fisher Scientific, Waltham Mass.) at 1,500 rpm for 45 sec after which the microtiter plate was centrifuged at 500×g for 1 min. The samples were incubated for 2 h at RT with humidity control to avoid evaporation. The detection reagents were prepared in a buffer that was composed, such that the enzymatic reaction was terminated due to chelating of Mg-ions and increased ionic strength, containing 50 mM Tris-HCl pH 7.5, 700 mM NaCl, 20 mM EDTA, and 0.01% (w/v) Tween-20. Importantly Eu-cryptate-coupled streptavidin had to be pre-incubated with a 100-fold molar excess of a random sequence oligonucleotide for 10 min at RT in the dark to block unspecific binding of single stranded RNA to the protein. Subsequently, the blocked streptavidin(—Eu) was mixed with the DNA-probes on ice and kept away from light until use. […]

mitochondrial RNA-polymerase (POLRMT), sequence (Q8BKF1 42-1207): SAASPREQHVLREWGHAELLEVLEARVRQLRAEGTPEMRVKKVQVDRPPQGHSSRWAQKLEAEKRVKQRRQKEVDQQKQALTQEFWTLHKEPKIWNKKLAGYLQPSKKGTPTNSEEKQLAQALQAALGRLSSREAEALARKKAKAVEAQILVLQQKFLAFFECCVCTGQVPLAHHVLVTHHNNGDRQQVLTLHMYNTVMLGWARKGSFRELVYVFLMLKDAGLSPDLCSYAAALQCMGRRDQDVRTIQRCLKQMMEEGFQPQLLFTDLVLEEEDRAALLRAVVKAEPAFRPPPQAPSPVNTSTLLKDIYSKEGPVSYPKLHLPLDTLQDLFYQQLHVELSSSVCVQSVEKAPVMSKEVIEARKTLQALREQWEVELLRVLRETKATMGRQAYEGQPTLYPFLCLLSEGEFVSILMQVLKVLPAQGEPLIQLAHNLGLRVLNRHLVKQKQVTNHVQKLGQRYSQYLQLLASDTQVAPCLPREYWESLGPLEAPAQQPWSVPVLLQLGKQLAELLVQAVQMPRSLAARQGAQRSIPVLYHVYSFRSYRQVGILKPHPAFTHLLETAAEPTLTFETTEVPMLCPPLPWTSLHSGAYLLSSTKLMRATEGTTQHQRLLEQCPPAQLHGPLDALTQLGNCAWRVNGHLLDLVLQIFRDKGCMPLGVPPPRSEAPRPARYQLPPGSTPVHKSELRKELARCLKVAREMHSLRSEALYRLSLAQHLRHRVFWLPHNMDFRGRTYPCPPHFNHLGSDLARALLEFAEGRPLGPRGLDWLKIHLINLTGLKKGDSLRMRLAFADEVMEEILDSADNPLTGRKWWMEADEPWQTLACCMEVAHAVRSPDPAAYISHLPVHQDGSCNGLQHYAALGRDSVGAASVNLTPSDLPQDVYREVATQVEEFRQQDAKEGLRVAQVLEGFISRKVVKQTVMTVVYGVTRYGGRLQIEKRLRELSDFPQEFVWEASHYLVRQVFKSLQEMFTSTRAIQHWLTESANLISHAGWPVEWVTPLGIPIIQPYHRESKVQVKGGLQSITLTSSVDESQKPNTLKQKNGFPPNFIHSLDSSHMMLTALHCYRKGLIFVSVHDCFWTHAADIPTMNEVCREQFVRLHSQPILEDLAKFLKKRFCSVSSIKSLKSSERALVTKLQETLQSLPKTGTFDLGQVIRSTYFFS

| pIC50 | SMILES |
| --- | --- |
| > 7.70 | Cc1cc(F)ccc1-c1cc(=O)oc2cc(O[C@H](C)C(=O)N3CCC[C@H](C(=O)O)C3)ccc12 [Compound 158, (3S)-1-[(2R)-2-[4-(4-fluoro-2-methyl-phenyl)-2-oxo-chromen-7-yl]oxypropanoyl]piperidine-3-carboxylic acid] |
| > 7.70 | Cc1ccccc1-c1cc(=O)oc2cc(OC(C)C(=O)N3CCC[C@H](C(=O)O)C3)ccc12 (stereo partly drawn) [Compound 3, (3S)-1-[2-[4-(o-tolyl)-2-oxo-chromen-7-yl]oxypropanoyl]piperidine-3-carboxylic acid] |
| 7.00 to 7.70 | CC(Oc1ccc2c(-c3ccccc3Cl)cc(=O)oc2c1)C(=O)N1CCC[C@H](C(=O)N(C)C)C1 (stereo partly drawn) [Compound 76, (3S)-1-[2-[4-(2-chlorophenyl)-2-oxo-chromen-7-yl]oxypropanoyl]-N,N-dimethyl-piperidine-3-carboxamide] |
| > 7.70 | C[C@@H](Oc1ccc2c(-c3ccc(F)cc3Cl)cc(=O)oc2c1)C(=O)Nc1ccc(CO)cc1 [Compound 130, (2R)-2-[4-(2-chloro-4-fluoro-phenyl)-2-oxo-chromen-7-yl]oxy-N-[4-(hydroxymethyl)phenyl]propanamide] |
| > 7.70 | Cc1ccccc1-c1cc(=O)oc2cc(OC(C)C(=O)N3CCCC3)ccc12 (centres unmarked) [Compound 5, 7-(1-methyl-2-oxo-2-pyrrolidin-1-yl-ethoxy)-4-(o-tolyl)chromen-2-one] |
| 7.00 to 7.70 | C[C@@H](Oc1ccc2c(-c3ccc(F)cc3Cl)cc(=O)oc2c1)C(=O)N1CCN[C@@H](C(=O)O)C1 [Compound 150, (2R)-4-[(2R)-2-[4-(2-chloro-4-fluoro-phenyl)-2-oxo-chromen-7-yl]oxypropanoyl]piperazine-2-carboxylic acid] |
| > 7.70 | C[C@@H](Oc1ccc2c(-c3ccccc3Cl)cc(=O)oc2c1)C(=O)N1CCC[C@H](CC(=O)O)C1 [Compound 103, 2-[(3R)-1-[(2R)-2-[4-(2-chlorophenyl)-2-oxo-chromen-7-yl]oxypropanoyl]-3-piperidyl]acetic acid] |
| > 7.70 | Cc1ccccc1-c1cc(=O)oc2cc(O[C@H](C)C(=O)N(C)C)ccc12 [Compound 44, (2R)-N,N-dimethyl-2-[4-(o-tolyl)-2-oxo-chromen-7-yl]oxy-propanamide] |
| > 7.70 | C[C@@H](Oc1ccc2c(-c3ccccc3Cl)cc(=O)oc2c1)C(=O)N1CCCCC1 [Compound 34, 4-(2-chlorophenyl)-7-[(1R)-1-methyl-2-oxo-2-(1-piperidyl)ethoxy]chromen-2-one] |
| 6.00 to 7.00 | COC(=O)c1ccnc(NC(=O)[C@@H](C)Oc2ccc3c(-c4ccc(F)cc4Cl)cc(=O)oc3c2)c1 [Compound 146, methyl 2-[[(2R)-2-[4-(2-chloro-4-fluoro-phenyl)-2-oxo-chromen-7-yl]oxypropanoyl]amino]pyridine-4-carboxylate] |
| 7.00 to 7.70 | COC(=O)[C@H]1CCN(C(=O)[C@@H](C)Oc2ccc3c(-c4ccc(F)cc4Cl)cc(=O)oc3c2)C1 [Compound 157, methyl (3S)-1-[(2R)-2-[4-(2-chloro-4-fluoro-phenyl)-2-oxo-chromen-7-yl]oxypropanoyl]pyrrolidine-3-carboxylate] |
| 7.00 to 7.70 | CCOC(=O)C(C)Oc1ccc2c(-c3ccccc3C)cc(=O)oc2c1 (centres unmarked) [Compound 58, ethyl 2-[4-(o-tolyl)-2-oxo-chromen-7-yl]oxypropanoate] |
| > 7.70 | C[C@@H](Oc1ccc2c(-c3ccc(F)cc3Cl)cc(=O)oc2c1)C(=O)N1CCC[C@H](CC(N)=O)C1 [Compound 133, 2-[(3R)-1-[(2R)-2-[4-(2-chloro-4-fluoro-phenyl)-2-oxo-chromen-7-yl]oxypropanoyl]-3-piperidyl]acetamide] |
| > 7.70 | COC(=O)C1CCCN(C(=O)C(C)Oc2ccc3c(-c4ccccc4C)cc(=O)oc3c2)C1 (centres unmarked) [Compound 6, methyl 1-[2-[4-(o-tolyl)-2-oxo-chromen-7-yl]oxypropanoyl]piperidine-3-carboxylate] |
| > 7.70 | CC(Oc1ccc2c(-c3ccccc3Cl)cc(=O)oc2c1)C(=O)Nc1ccccn1 (centres unmarked) [Compound 31, 2-[4-(2-chlorophenyl)-2-oxo-chromen-7-yl]oxy-N-(2-pyridyl)propanamide] |
| 7.00 to 7.70 | CCOC(=O)C(C)Oc1ccc2c(-c3ccc(F)cc3Cl)cc(=O)oc2c1 (centres unmarked) [Compound 82, Ethyl 2-((4-(2-chloro-4-fluorophenyl)-2-oxo-2H-chromen-7-yl)oxy)propanoate] |
| > 7.70 | CC(Oc1ccc2c(-c3ccccc3Cl)cc(=O)oc2c1)C(=O)N1CCCC(c2nn[nH]n2)C1 (centres unmarked) [Compound 39, 4-(2-chlorophenyl)-7-[1-methyl-2-oxo-2-[3-(2H-tetrazol-5-yl)-1-piperidyl]ethoxy]chromen-2-one] |
| > 7.70 | CNS(=O)(=O)C1CCCN(C(=O)C(C)Oc2ccc3c(-c4ccccc4Cl)cc(=O)oc3c2)C1 (centres unmarked) [Compound 20, 1-[2-[4-(2-chlorophenyl)-2-oxo-chromen-7-yl]oxypropanoyl]-N-methyl-piperidine-3-sulfonamide] |
| > 7.70 | C[C@@H](Oc1ccc2c(-c3ccccc3Cl)cc(=O)oc2c1)C(=O)N1CCC[C@@H](CC(=O)O)C1 [Compound 102, 2-[(3S)-1-[(2R)-2-[4-(2-chlorophenyl)-2-oxo-chromen-7-yl]oxypropanoyl]-3-piperidyl]acetic acid] |
| > 7.70 | CC(Oc1ccc2c(-c3ccccc3Cl)cc(=O)oc2c1)C(=O)Nc1ccc(CCO)cc1 (centres unmarked) [Compound 35, 2-[4-(2-chlorophenyl)-2-oxo-chromen-7-yl]oxy-N-[4-(2-hydroxyethyl)phenyl]propanamide] |
| 6.00 to 7.00 | CCOC(=O)C(C)(C)Oc1ccc2c(-c3ccccc3Cl)cc(=O)oc2c1 [Compound 113, ethyl 2-[4-(2-chlorophenyl)-2-oxo-chromen-7-yl]oxy-2-methyl-propanoate] |
| > 7.70 | C[C@@H](Oc1ccc2c(-c3ccc(F)cc3Cl)cc(=O)oc2c1)C(=O)Nc1cncc(C(=O)O)c1 [Compound 148, 5-[[(2R)-2-[4-(2-chloro-4-fluoro-phenyl)-2-oxo-chromen-7-yl]oxypropanoyl]amino]pyridine-3-carboxylic acid] |
| 7.00 to 7.70 | CC(C)OC(=O)[C@@H](C)Oc1ccc2c(-c3ccccc3Cl)cc(=O)oc2c1 [Compound 64, isopropyl (2R)-2-[4-(2-chlorophenyl)-2-oxo-chromen-7-yl]oxypropanoate] |
| 7.00 to 7.70 | CC(Oc1ccc2c(-c3ccccc3Cl)cc(=O)oc2c1)C(=O)N1CCC[C@@H](C(=O)N(C)C)C1 (stereo partly drawn) [Compound 67, (3R)-1-[2-[4-(2-chlorophenyl)-2-oxo-chromen-7-yl]oxypropanoyl]-N,N-dimethyl-piperidine-3-carboxamide] |
| 6.00 to 7.00 | CCOC(=O)C(C)Oc1ccc2c(-c3ccccc3F)cc(=O)oc2c1 (centres unmarked) [Compound 175, ethyl 2-[4-(2-fluorophenyl)-2-oxo-chromen-7-yl]oxypropanoate] |
| 7.00 to 7.70 | COC(=O)CC1CCN(C(=O)C(C)Oc2ccc3c(-c4ccccc4C)cc(=O)oc3c2)CC1 (centres unmarked) [Compound 83, methyl 2-[1-[2-[4-(o-tolyl)-2-oxo-chromen-7-yl]oxypropanoyl]-4-piperidyl]acetate] |
| 7.00 to 7.70 | CC(Oc1ccc2c(-c3ccc(F)cc3Cl)cc(=O)oc2c1)C(=O)NC1CC1 (centres unmarked) [Compound 90, 2-[4-(2-chloro-4-fluoro-phenyl)-2-oxo-chromen-7-yl]oxy-N-cyclopropyl-propanamide] |
| 7.00 to 7.70 | CCOC(=O)C1(C)CCCN(C(=O)C(C)Oc2ccc3c(-c4ccccc4Cl)cc(=O)oc3c2)C1 (centres unmarked) [Compound 75, ethyl 1-[2-[4-(2-chlorophenyl)-2-oxo-chromen-7-yl]oxypropanoyl]-3-methyl-piperidine-3-carboxylate] |
| 6.00 to 7.00 | Cc1ccccc1-c1cc(=O)oc2cc(OC(C)C(=O)O)ccc12 (centres unmarked) [Compound 97, 2-[4-(o-tolyl)-2-oxo-chromen-7-yl]oxypropanoic acid] |
